Measurements published in US5935932A, “Bradykinin antagonists containing pentafluorophenylalanine” (University Technology Corporation, priority 1998, dated 1999).
Where two headings read alike, the source gives them in different places. Where a SMILES comes first, the peptide text is derived from it. Where no end group is shown, it is not given here. [ ]: non-standard residue; d: D form. dPhe(F5) = N[C@H](Cc1c(F)c(F)c(F)c(F)c1F)C(=O)O; Igl = N[C@H](C(=O)O)C1Cc2ccccc2C1; Hyp = O=C(O)[C@@H]1C[C@@H](O)CN1; 2Thi = N[C@@H](Cc1cccs1)C(=O)O

Columns and labels:
[1] = target: T1, bradykinin receptors in Guinea Pig Ileum (Cavia porcellus, UniProt O70526); test: Guinea Pig Ileum functional assay; assay type: cell-based
T1 construct: describes the Guinea Pig Ileum assay used to analyze the present compounds; from tissue; host or cells: isolated guinea pig ileum
T1 sequence (O70526 1-372): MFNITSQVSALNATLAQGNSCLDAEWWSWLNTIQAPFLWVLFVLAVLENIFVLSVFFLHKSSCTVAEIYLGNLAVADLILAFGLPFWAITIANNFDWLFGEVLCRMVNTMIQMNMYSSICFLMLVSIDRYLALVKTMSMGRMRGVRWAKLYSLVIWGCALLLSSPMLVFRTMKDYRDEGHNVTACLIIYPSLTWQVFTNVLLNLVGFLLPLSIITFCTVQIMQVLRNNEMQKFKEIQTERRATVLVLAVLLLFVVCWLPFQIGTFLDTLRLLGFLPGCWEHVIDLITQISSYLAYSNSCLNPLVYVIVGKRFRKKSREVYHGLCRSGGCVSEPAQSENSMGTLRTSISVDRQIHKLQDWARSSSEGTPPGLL
Source text: 5. Guinea Pig Ileum functional assay
Trautshold, Handbook of Expt. Pharmacol. Vol 25, Springer Verlag pp 53-55 (1970) describes the Guinea Pig Ileum assay used to analyze the present compounds. The Trautshold method was used without changes to the parameters. U.S. Pat. No. 4,693,993, at Column 14, line 10 gives a general description of data analysis for this assay.
In this table, I=inhibitor, and numbers in parenthesis are pA2. Agonist activity are given as percent BK activity.

[2] = target: T2, bradykinin receptors in Rat Uterus (Rattus norvegicus, UniProt P25023); test: Rat Uterus functional assay; assay type: cell-based
T2 construct: describes the Rat Uterus assay used to analyze the present compounds; from tissue; host or cells: isolated rat uterus
T2 sequence (P25023 1-396): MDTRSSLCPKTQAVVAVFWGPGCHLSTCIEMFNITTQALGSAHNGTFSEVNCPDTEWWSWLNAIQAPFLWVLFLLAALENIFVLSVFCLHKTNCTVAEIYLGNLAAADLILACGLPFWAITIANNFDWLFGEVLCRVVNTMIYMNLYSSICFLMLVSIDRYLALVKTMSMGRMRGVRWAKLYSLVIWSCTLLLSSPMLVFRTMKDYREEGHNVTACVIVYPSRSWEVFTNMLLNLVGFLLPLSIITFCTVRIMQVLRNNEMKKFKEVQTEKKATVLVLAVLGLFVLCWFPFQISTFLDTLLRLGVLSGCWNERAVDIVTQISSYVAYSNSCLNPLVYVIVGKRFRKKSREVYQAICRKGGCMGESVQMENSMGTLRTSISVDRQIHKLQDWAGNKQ
Source text: 4. Rat Uterus functional assay Trautshold, Handbook of Expt. Pharmacol. […] The Trautshold method was used without changes to the parameters. U.S. Pat. No. 4,693,993, at Column 14, line 10 gives a general description of data analysis for this assay. In this table, I=inhibitor, and numbers in parenthesis are pA2. Agonist activity are given as percent BK activity.

BK action = conditions: rabbits; subcutaneous injection; cited from earlier work
hypotensive action of BK = conditions: rats, cited from earlier work
[3] = cited from earlier work
[4] = number in parenthesis is pA2, read-out: Ileum, pA2 (I=inhibitor) (converted)

Row | Molecule | Kb [1, 4] | Kb [2] | further results
1 | N=C(N)NCCC[C@@H](N)C(=O)N[C@@H](CCCNC(=N)N)C(=O)N1CCC[C@H]1C(=O)N1C[C@H](O)C[C@H]1C(=O)NCC(=O)N[C@@H](Cc1cccs1)C(=O)N[C@@H](CO)C(=O)N1Cc2ccccc2C[C@@H]1C(=O)N[C@@H](Cc1c(F)c(F)c(F)c(F)c1F)C(=O)N[C@@H](CCCNC(=N)N)C(=O)O [Compound B10168, DArg-Arg-Pro-Hyp-Gly-Thi-Ser-DTic-f5f-Arg] | 3160 nM | – | Uterus, agonist activity as percent BK activity [2]: 4%
2 | CC(C)C[C@H](NC(=O)[C@@H](Cc1c(F)c(F)c(F)c(F)c1F)NC(=O)[C@H](CO)NC(=O)[C@H](Cc1cccs1)NC(=O)CNC(=O)[C@@H]1C[C@@H](O)CN1C(=O)[C@@H]1CCCN1C(=O)[C@H](CCCNC(=N)N)NC(=O)[C@H](N)CCCNC(=N)N)C(=O)N[C@@H](CCCNC(=N)N)C(=O)O [Compound B10172, DArg-Arg-Pro-Hyp-Gly-Thi-Ser-Df5f-Leu-Arg] (H-[dR]RP[Hyp]G[2Thi]S[dPhe(F5)]LR-OH; N-terminus and C-terminus assumed) | 50.1 nM | 5.01 nM | –
3 | CC(C)C[C@H](NC(=O)[C@@H](Cc1c(F)c(F)c(F)c(F)c1F)NC(=O)[C@H](CO)NC(=O)[C@@H](NC(=O)CNC(=O)[C@@H]1C[C@@H](O)CN1C(=O)[C@@H]1CCCN1C(=O)[C@H](CCCNC(=N)N)NC(=O)[C@H](N)CCCNC(=N)N)C1Cc2ccccc2C1)C(=O)N[C@@H](CCCNC(=N)N)C(=O)O [Compound B10174, DArg-Arg-Pro-Hyp-Gly-Igl-Ser-Df5f-Leu-Arg] (H-[dR]RP[Hyp]G[Igl]S[dPhe(F5)]LR-OH; N-terminus and C-terminus assumed) | 6.31 nM | 7.94 nM | –
4 | N=C(N)NCCC[C@@H](N)C(=O)N[C@@H](CCCNC(=N)N)C(=O)N1CCC[C@H]1C(=O)N1C[C@H](O)C[C@H]1C(=O)NCC(=O)N[C@H](C(=O)N[C@@H](CO)C(=O)N[C@@H](C(=O)N[C@@H](Cc1c(F)c(F)c(F)c(F)c1F)C(=O)N[C@@H](CCCNC(=N)N)C(=O)O)C1Cc2ccccc2C1)C1Cc2ccccc2C1 [Compound B10178, DArg-Arg-Pro-Hyp-Gly-Igl-Ser-DIgl-f5f-Arg] | 398 nM | 31600 nM | –
5 | N=C(N)NCCC[C@@H](N)C(=O)N[C@@H](CCCNC(=N)N)C(=O)N1CCC[C@H]1C(=O)N1C[C@H](O)C[C@H]1C(=O)NCC(=O)N[C@H](C(=O)N[C@@H](CO)C(=O)N[C@H](Cc1c(F)c(F)c(F)c(F)c1F)C(=O)N[C@H](C(=O)N[C@@H](CCCNC(=N)N)C(=O)O)C1CCCCC1)C1Cc2ccccc2C1 [Compound B10180, DArg-Arg-Pro-Hyp-Gly-Igl-Ser-Df5f-Chg-Arg] | 7.94 nM | 6.31 nM | –
6 | N=C(N)NCCC[C@@H](N)C(=O)N[C@@H](CCCNC(=N)N)C(=O)N1CCC[C@H]1C(=O)N1C[C@H](O)C[C@H]1C(=O)NCC(=O)N[C@@H](Cc1cccs1)C(=O)N[C@@H](CO)C(=O)N[C@H](Cc1c(F)c(F)c(F)c(F)c1F)C(=O)N(CC(=O)N[C@@H](CCCNC(=N)N)C(=O)O)C1CCCCCC1 [Compound B10204, DArg-Arg-Pro-Hyp-Gly-Thi-Ser-Df5f-Nc7G-Arg] | 12.6 nM | 631 nM | –
7 | N=C(N)NCCC[C@@H](N)C(=O)N[C@@H](CCCNC(=N)N)C(=O)N1CCC[C@H]1C(=O)N1C[C@H](O)C[C@H]1C(=O)NCC(=O)N[C@H](C(=O)N[C@@H](CO)C(=O)N[C@H](Cc1c(F)c(F)c(F)c(F)c1F)C(=O)N(CC(=O)N[C@@H](CCCNC(=N)N)C(=O)O)C1CCCCCC1)C1Cc2ccccc2C1 [Compound B10206, DArg-Arg-Pro-Hyp-Gly-Igl-Ser-Df5f-Nc7G-Arg] | 15.8 nM | 1.26 nM | –
8 | N=C(N)NCCC[C@@H](N)C(=O)N[C@@H](CCCNC(=N)N)C(=O)N1CCC[C@H]1C(=O)N1C[C@H](O)C[C@H]1C(=O)NCC(=O)N[C@@H](Cc1cccs1)C(=O)N[C@@H](CO)C(=O)N[C@H](Cc1c(F)c(F)c(F)c(F)c1F)C(=O)N(CC(=O)N[C@@H](CCCNC(=N)N)C(=O)O)C1CCCCC1 [Compound B10208, DArg-Arg-Pro-Hyp-Gly-Thi-Ser-Df5f-NchG-Arg] | – | – | Kb ([1]; Ileum, pA2 (I=inhibitor), number in parenthesis is pA2): 2 nM; Uterus, agonist activity as percent BK activity ([2]; rat uterus, agonist activity): 14.0%
9 | N=C(N)NCCC[C@@H](N)C(=O)N[C@@H](CCCNC(=N)N)C(=O)N1CCC[C@H]1C(=O)N[C@H](C(=O)NCC(=O)N[C@H](C(=O)N[C@@H](CO)C(=O)N[C@H](Cc1c(F)c(F)c(F)c(F)c1F)C(=O)N1[C@H](C(=O)N[C@@H](CCCNC(=N)N)C(=O)O)C[C@@H]2CCCC[C@@H]21)C1Cc2ccccc2C1)C1Cc2ccccc2C1 [Compound B10214, DArg-Arg-Pro-Igl-Gly-Igl-Ser-Df5f-Oic-Arg] | 7.94 nM | 6.31 nM | –
10 | N=C(N)NCCC[C@@H](N)C(=O)N[C@@H](CCCNC(=N)N)C(=O)N1CCC[C@H]1C(=O)N[C@@H](C(=O)NCC(=O)N[C@H](C(=O)N[C@@H](CO)C(=O)N[C@H](Cc1c(F)c(F)c(F)c(F)c1F)C(=O)N1[C@H](C(=O)N[C@@H](CCCNC(=N)N)C(=O)O)C[C@@H]2CCCC[C@@H]21)C1Cc2ccccc2C1)C1Cc2ccccc2C1 [Compound B10216, DArg-Arg-Pro-DIgl-Gly-Igl-Ser-Df5f-Oic-Arg] | 158 nM | 39.8 nM | –
11 | N=C(N)NCCC[C@H](NC(=O)[C@H](Cc1c(F)c(F)c(F)c(F)c1F)NC(=O)[C@@H](Cc1c(F)c(F)c(F)c(F)c1F)NC(=O)[C@H](CO)NC(=O)[C@@H](NC(=O)CNC(=O)[C@@H]1C[C@@H](O)CN1C(=O)[C@@H]1CCCN1C(=O)[C@H](CCCNC(=N)N)NC(=O)[C@@H](N)CCCNC(=N)N)C1Cc2ccccc2C1)C(=O)O [Compound B10230, Arg-Arg-Pro-Hyp-Gly-Igl-Ser-Df5f-f5f-Arg] | 20 nM | 1580 nM | –
12 | N=C(N)NCCC[C@@H](N)C(=O)N[C@@H](CCCNC(=N)N)C(=O)N1CCC[C@H]1C(=O)N1C[C@H](O)C[C@H]1C(=O)NCC(=O)N[C@H](C(=O)N[C@@H](CO)C(=O)N[C@H](Cc1c(F)c(F)c(F)c(F)c1F)C(=O)N[C@@H](Cc1c(F)c(F)c(F)c(F)c1F)C(=O)N[C@@H](CCCNC(=N)N)C(=O)O)C1Cc2ccccc2C1 [Compound B10232, DArg-Arg-Pro-Hyp-Gly-Igl-Ser-Df5f-f5f-Arg] | 20 nM | 7.94 nM | –
13 | N=C(N)NCCC[C@H](NC(=O)[C@H](Cc1c(F)c(F)c(F)c(F)c1F)NC(=O)[C@@H](Cc1c(F)c(F)c(F)c(F)c1F)NC(=O)[C@H](CO)NC(=O)[C@@H](NC(=O)CNC(=O)[C@@H]1C[C@@H](O)CN1C(=O)[C@@H]1CCCN1C(=O)[C@H](CCCNC(=N)N)NC(=O)[C@H](CCCNC(=N)N)NC(=O)CCC(=O)OCCOC(=O)CCC(=O)N[C@@H](CCCNC(=N)N)C(=O)N[C@@H](CCCNC(=N)N)C(=O)N1CCC[C@H]1C(=O)N1C[C@H](O)C[C@H]1C(=O)NCC(=O)N[C@H](C(=O)N[C@@H](CO)C(=O)N[C@H](Cc1c(F)c(F)c(F)c(F)c1F)C(=O)N[C@@H](Cc1c(F)c(F)c(F)c(F)c1F)C(=O)N[C@@H](CCCNC(=N)N)C(=O)O)C1Cc2ccccc2C1)C1Cc2ccccc2C1)C(=O)O [Compound B10236, EGS-(Arg-Arg-Pro-Hyp-Gly-Igl-Ser-Df5f-f5f-Arg)2] | 39.8 nM | – | Kb ([2]; rat uterus, number in parenthesis is pA2, read-out: Uterus, pA2 (I=inhibitor) (converted)): 20 nM
14 | DArg-Arg-Pro-Hyp-Gly-Igl-Ser-DIgl-Oic-Arg [Compound B9430] | – | – | duration of block of BK action (BK action): more than 24 hrs; bioavailability (hypotensive action of BK; intragastric administration): low; activity following intragastric administration (hypotensive action of BK; intragastric): active; duration of block of the hypotensive action of BK (hypotensive action of BK; single intravenous injection): more than four; duration of block of BK action (hypotensive action of BK; subcutaneous injection): 48 h
15 | RPPGFSPFR [BK] | – | – | plasma half-life ([3]; caused by CPN): ≤ 15 s; cleavage by ACE on a single passage through the pulmonary circulation ([3]; single passage, pulmonary circulation): more than 99%
